From patent US5929039A, “Method for treating cardiac dysfunction and pharmaceutical compositions useful therefor” (Baker Medical Research Institute, priority 1993, dated 1999)
Where two headings read alike, the source gives them in different places. Values belong to the compound of their own block, whether it stands above or below them.

Assays:
[1] = tested on: in situ perfused rat hearts; settings: for Reperfusion-induced arrhythmias VF % incidence / Reperfusion-induced arrhythmias VT % incidence: control 83
Description: (§1) A model of in situ perfused rat hearts subjected to 20 minutes coronary artery occlusion to induce ischaemia, followed by reperfusion was used to investigate reperfusion-induced arrhythmias.
(§2) Rats (250-300 g) were anaesthetised (pentobarbitone 60 mg/kg, I.P.) and heparinised (200 U/rat I.V.) The thorax was then opened and a metal cannula (ID 1 mm) inserted and tied into the ascending aorta, to commence Langendorff perfusion in situ (31). The interval from opening the chest to commencing heart perfusion was between 50 and 70 seconds. The perfusate was Krebs buffer, with coronary flow controlled by a Ismatac peristaltic pump at a rate of 5 ml/g heart weight/min for the non-ischaemic perfusion. At this flow rate the coronary perfusion pressure was between 32-38 mmHg, measured by pressure transducer (Gould Statham model p23) connected to the sidearm of the perfusion line. Following aortic cancellation, pulmonary vessels were tied off. In some preparations, ventricular pressure was measured by inserting a Millar micro-tip transducer catheter into the left ventricular cavity via the apex. All parameters--coronary perfusion pressure, ventricular pressure, and epicardial ECG, were constantly recorded on a Grass model 7 polygraph. Two hearts were perfused and simultaneously studied.
(§3) A silk suture (4.0) was positioned loosely around the left coronary artery 2-3 mm from its origin. Two silk releasing rings were placed around the suture for subsequent release of occlusion. Successful occlusion of the artery, inducing regional ischaemia, was indicated by increases in coronary perfusion pressure of at least 30%. Perfusion pressure was adjusted to non-ischaemic perfusion levels during the ischaemic period.
(§4) Drugs were added to the perfusion via a Harvard Model 22 pump. The drug flow was less than 1% of perfusion flow to ensure constant perfusate parameters. Unless mentioned otherwise, the drugs were present 10 minutes before, and during the entire ischaemic and reperfusion periods.
(§5) Heart preparations were allowed to stabilise for at least 20 minutes prior to commencing studies. Following 10 minute drug incubation, the left coronary artery was ligated to induce local ischaemia, for a period of 20 minutes. At the end of this ischaemic period, the ligature was released and hearts perfused at pre-ischaemic flow for a period of 5 minutes. Ventricular arrhythmias, occurring during ischaemia or during the first 2 minutes of reperfusion were defined according to the Lambeth Conventions (32).
Incidence of arrhythmias was analysed using a .chi.^2 test, with n≥8 for each group.

Ins(1,4,5)P3 release [2] = assay: Ins(1,4,5)P3 mass in isolated perfused rat hearts, 2 min reperfusion after 20 min global ischaemia (competitive binding assay); settings: for Ins(1,4,5)P3 mass: control 200 ± 18
Description: (§6) Adult male sprague dawley rats 250-300 g were used. Where indicated, rats were treated with reserpine (5 mg/kg I.P. for 18 hrs prior to killing) to deplete endogenous noradrenaline stores.. Rats were heparinized 1 U/g I.P. 30 minutes prior to killing by decapitation. Hearts were rapidly excised and immediately chilled in ice-cold saline. Under ice-cold solution, hearts were cannulated via the ascending aorta as described by Langendorff and perfused retrogradely at a rate of 5 ml/min with HEPES-buffered Krebs solution equilibrated with 5%CO2 -95%O2 at 37° C. Initial perfusion was in a non-recirculating manner to remove internal blood. Hearts were allowed to warm up gradually and, when free of internal blood, transferred to a 37° C. water-jacketed organ bath containing carbogenated Krebs medium, and perfusion continued in a recirculating manner. Following a 15 minute equilibration period, hearts were labelled with [^3 H]-inositol, 2 μCi/ml for 2 h. Hearts were monitored throughout the labelling period for strong rhythmic beating.
(§7) Following labelling, the [^3 H]-inositol-containing medium was removed, and replaced with Krebs medium containing propranolol (10^-6 M) and lithium chloride (50 mM) to block β-adrenergic receptors and to inhibit InsP metabolism by InsP 1'-phosphatase respectively (20). Hearts were perfused with propranolol, LiCi solution for 10 minutes prior to ischaemia. Antagonists, when administered, were included in this 10 minute preincubation. Normothermic global ischaemia was induced by terminating perfusion for various times up to 30 minutes. Reperfusion was examined following a 20 minute ischaemic period by resuming perfusion at 5 ml/min. Reactions were terminated by freezing hearts in liquid N2 following excision at the atrioventricular junction. Frozen ventricles were weighed and inositol phosphates extracted as described below.
(§8) Inositol phosphates were extracted from ventricle samples in 3.5 ml ice-cold 5% trichloroacetic acid (TCA), 2.5 mM EDTA, 5 mM phytate solution, as described previously (21). Briefly, ventricles were homogenised with two 10 second passes of a "Polytron" homogenizer separated by 15 second periods on ice. Samples were homogenised further using a Potter-Elvejheim homogeniser followed by brief sonication. Homogenised samples were centrifuged (5000 rpm, 10 min, 4° C.) to remove TCA insoluble material. Supernatants were collected, and the remaining pellet re-extracted in 1.5 ml TCA, EDTA, phytate. Supernatants were pooled and freon, tri-n-ocylamine (1:1 v/v 0.75 ml:1 ml TCA solution) was added, mixed thoroughly, and phases separated by low speed centrifugation (2000 rpm, 10 min 4° C.). The resultant aqueous phase, containing inositol phosphates was collected and treated with proteinase K (50 μg/ml, 2 hr, 50° C.). This process was necessary to preserve the chromatography column. Treated samples were passed through a 1 ml Dowex-50 column (4% cross-linked 4-400 mesh size) and eluted with 1 ml water (22). Urea (0.05 M final) was added (23) and samples lyophilized prior to high performance liquid chromatography (HPLC) analysis. Recovery of inositol phosphates using this method was greater than 95% for each isomer, as estimated by addition of [^3 H]-labelled standards to extractions of unlabelled hearts.
Mass of Ins(1,4,5)P3 was measured using a competitive binding assay (Amersham TRK 1000) essentially as described previously (26). Ventricle samples were prepared as described above except for the omission of [^3 H]-label during the 2 hr perfusion of hearts prior to ischaemia, and for the use of 5 mm ATP instead of phytate in the extraction procedure.
Protein concentration was determined in aliquots of TCA pellet following InsP extraction using a modified Lowry method with Bovine Serum Albumin as a standard.
(§9) Values presented are mean ±SEM, for n=4 unless otherwise stated. Statistical analysis of results involved Students' unpaired "t-test" for all InsP data.

[3] = tested on: [3H]-labelled inositol phosphate accumulation; assay: [3H]-labelled inositol phosphate accumulation in isolated perfused rat hearts under ischaemia and post-ischaemic reperfusion; settings: for average inhibition of [3H]-labelled inositol phosphate accumulation: vs 2 min post-ischaemic reperfusion without neomycin
Description: as §6, §7, §8
(§10) Inositol phosphates were separated by an anion-exchange HPLC system using a Whatman Partisil 10μ SAX column in a Waters Radial Compression Unit, employing a complex ammonium phosphate gradient, pH 3.8 from 0-2 M as described previously (24). Inositol phosphates were detected and quantitated using an on-line […] (model CR, Radiomatic Instruments) All peaks were identified by comparison with commercial standards. Nucleotide standards AMP, ADP, and ATP were run with samples to assess column performance.
as §9

PI-PLC heart rep = assay: Inhibition of PI-PLC in hearts under reperfusion conditions; design: species or system rat
Description: as §6, §7
Mass of Ins(1,4,5)P3 was measured using a competitive binding assay (Amersham TRK 1000) essentially as described previously (26). […]

[4] = tested on: inositol phosphate accumulation in heart tissue; assay: Inositol phosphate accumulation in healthy (normoxic) heart tissue; design: species or system rat; settings: healthy heart tissue
Description: as §6, §8, §10

PI-PLC kidney me = settings: membrane enzyme; from the literature (35); cited from earlier work
PI-PLC kidney cy = settings: cytosolic enzyme; from the literature (35); cited from earlier work
[5] = tested on: hearts from reserpinized rats; assay: Arrhythmic effect of thrombin under reperfusion conditions, perfused hearts from reserpinized rats; design: species or system rat; settings: for VF% / VT%: n 9
Description: as §1, §2, §3, §4, §5
The finding that thrombin directly stimulated release of Ins(1,4,5)P3 in heart indicates the possibility that thrombin might cause arrhythmias directly via this mechanism. Experiments were performed using hearts from reserpinized rats so that arrhythmic events initiated by noradrenaline were eliminated. Reperfusion arrhythmias were not observed in hearts from reserpinized animals. […] Furthermore, these arrhythmias were inhibited by gentamicin, indicating a relationship to release of Ins(1,4,5)P3 (Table 2).

Ins(1,4,5)P3 release [6] = assay: Thrombin-stimulated release of Ins(1,4,5)P3 in heart tissue
[7] = 25 μg/kg I.P. 48 h prior to experimentation
[8] = 0.5 mM, 2 min reperfusion after 20 min global ischaemia
[9] = 5 mM, 2 min reperfusion after 20 min global ischaemia
[10] = hearts from reserpinized rats, no thrombin
[11] = thrombin 2 U/ml in perfusate, reserpinized hearts

Compound: Pertussis toxin [PTX]
Reperfusion-induced arrhythmias VF % incidence [1, 7]: 10%
Reperfusion-induced arrhythmias VT % incidence [1, 7]: 40%
Ins(1,4,5)P3 mass (Ins(1,4,5)P3 release [2]; [7]): 128 ± 28 pmol/mg protein

Compound: neomycin
rats showing both severe VT and VF throughout reperfusion ([1]; 0.05 mM): 6 out of 8
Reperfusion-induced arrhythmias VF % incidence ([1]; 0.05 mM): 70%
Reperfusion-induced arrhythmias VT % incidence ([1]; 0.05 mM): 75%
rats exhibiting VT or VF on reperfusion ([1]; 0.5 mM): none of the 10 rats
heart rate and ventricular pressure ([1]; 0.5 mM, after 10 minute incubation prior to occlusion): not significantly differing from control
Reperfusion-induced arrhythmias VF % incidence ([1]; 0.5 mM): 0%
Reperfusion-induced arrhythmias VT % incidence ([1]; 0.5 mM): 0%
Reperfusion-induced arrhythmias VF % incidence ([1]; 5 mM): 0%
Reperfusion-induced arrhythmias VT % incidence ([1]; 5 mM): 0%
inhibition of accumulation of [3H]-labelled inositol phosphates ([3]; 0.05 mM, added 10 min prior to ischaemia, 2 min reperfusion): did not significantly inhibit
average inhibition of [3H]-labelled inositol phosphate accumulation ([3]; 0.5 mM): 45%
average inhibition of [3H]-labelled inositol phosphate accumulation ([3]; 5 mM): 55%
increase in sensitivity of myocardial tissue to neomycin during post-ischaemic reperfusion ([3]; reperfusion vs healthy heart): more than 10 fold
EC50 (PI-PLC heart rep): 400 µM
effect on accumulations of Inositol phosphate1 and Inositol phosphate2 ([4]; 5 mM): without effect
reduction in accumulation of [3H]Ins(1,4,5)P3 ([4]; 5 mM): 20%
effect on inositol phosphate accumulation ([4]; concentrations lower than 5 mM): ineffective
EC50 (PI-PLC kidney me): 200 µM
EC50 (PI-PLC kidney cy): 30 µM
Ins(1,4,5)P3 mass (Ins(1,4,5)P3 release [2]; 0.05 mM, 2 min reperfusion after 20 min global ischaemia, mean±SEM, 4 hearts): 184 ± 7 pmol/mg protein
Ins(1,4,5)P3 mass (Ins(1,4,5)P3 release [2]; [8]): 121 ± 11 pmol/mg protein
Ins(1,4,5)P3 mass (Ins(1,4,5)P3 release [2]; [9]): 104 ± 12 pmol/mg protein

Compound: COC(=O)[C@H]1[C@H]2C[C@@H]3c4[nH]c5cc(OC)ccc5c4CCN3C[C@H]2C[C@@H](OC(=O)c2cc(OC)c(OC)c(OC)c2)[C@@H]1OC [reserpine]
rapid accumulation of inositol phosphates at 2 minutes post-ischaemic reperfusion ([3]; prior reserpine treatment (5 mg/kg I.P. 18 hrs)): prevented
VF% [5, 10]: 0%
VT% [5, 10]: 44%

Compound: NC[C@H](O)c1ccc(O)c(O)c1 [noradrenaline]
release of [3H]-labelled Ins(1,4,5)P3 on reperfusion ([3]; 10^-4 M perfusion, reserpinized animals): reinstated

inhibition of reperfusion-induced Ins(1,4,5)P3 release (Ins(1,4,5)P3 release [2]): inhibitory
Ins(1,4,5)P3 mass (Ins(1,4,5)P3 release [2]; [8]): 182 + 4 pmol/mg protein
Ins(1,4,5)P3 mass (Ins(1,4,5)P3 release [2]; [9]): 160 ± 9 pmol/mg protein
Compound: NCCCNCCCCNCCCN [spermine]
effect on reperfusion arrhythmias [1]: inhibited
Reperfusion-induced arrhythmias VF % incidence ([1]; 0.5 mM): 36%
Reperfusion-induced arrhythmias VT % incidence ([1]; 0.5 mM): 63%
Reperfusion-induced arrhythmias VF % incidence ([1]; 5 mM): 20%
Reperfusion-induced arrhythmias VT % incidence ([1]; 5 mM): 30%

Compound: COc1cc2nc(N3CCN(C(=O)c4ccco4)CC3)nc(N)c2cc1OC [prazosin]
2 minute reperfusion inositol phosphate response ([3]; 10 μM): inhibited
redistribution of [3H]-labelled inositol phosphates under ischaemic conditions ([3]; global ischaemia, α1 adrenoceptor blockade): unaffected

Compound: thrombin
reperfusion arrhythmias ([5]; thrombin 2 U/ml added to perfusate, reserpinized hearts): high incidence
VF% [5, 11]: 67%
VT% [5, 11]: 89%
release of Ins(1,4,5)P3 in heart tissue (Ins(1,4,5)P3 release [6]): directly stimulates release

Compound: CN[C@@H]1C[C@H]2O[C@@](C)([C@@H]1OC)n1c3ccccc3c3c4c(c5c6ccccc6n2c5c31)C(=O)NC4 [staurosporine]
percentage incidence of reperfusion-induced arrhythmias vs untreated controls ([1]; 10^-7 M): did not significantly alter
Reperfusion-induced arrhythmias VF % incidence ([1]; .1 μM): 69%
Reperfusion-induced arrhythmias VT % incidence ([1]; .1 μM): 83%
